Assay results published in ChEMBL document CHEMBL3885861, “Open TG-GATES”.

Species: Rattus norvegicus
Test: Open TG-GATES - Regimen: Single
Type: toxicity, organism-based, Sprague-Dawley
Set-up: regimen Single, gender Male, age 6 weeks
Conditions: in vivo, iv, 40 mg/kg, route intravenous injection, dose level Middle; for APTT / Bas / Eos / Fbg / Hb / Ht / Lym / MCH / MCHC / MCV / Mono / Neu / PT / Plat / RBC / Ret / WBC: tissue Blood; for KIDNEY_L / KIDNEY_R / KIDNEY_TOTAL: tissue Kidney; for LIVER: tissue Liver; for A/G / ALP / ALT / AST / BUN / CRE / Ca / Cl / DBIL / GLC / IP / K / LDH / Na / PL / RALB / TBIL / TC / TG / TP / gamma-GTP: tissue Plasma

CN(C)c1ncnc2c1ncn2[C@@H]1O[C@H](CO)[C@@H](N)[C@H]1O [PUROMYCIN AMINONUCLEOSIDE]
TERMINAL_BW (3 h): 219 g
APTT (3 h): 21.1 s
Bas (3 h): 0%
Eos (3 h): 0.4%
Fbg (3 h): 283.6 mg/dL
Hb (3 h): 12.7 g/dL
Ht (3 h): 38%
Lym (3 h): 55.6%
MCH (3 h): 21.2 pg
MCHC (3 h): 33.6%
MCV (3 h): 63.3 fL
Mono (3 h): 4.2%
Neu (3 h): 38%
PT (3 h): 16.2 s
Plat (3 h): 115.8 x10_4/uL
RBC (3 h): 600.8 x10_4/ul
Ret (3 h): 6.9%
WBC (3 h): 148.2 x10_2/uL
KIDNEY_L (3 h): 0.9 g
KIDNEY_R (3 h): 1 g
KIDNEY_TOTAL (3 h): 1.9 g
LIVER (3 h): 9.9 g
A/G (3 h): 1.2
ALP (3 h): 1624.6 IU/L
ALT (3 h): 39.2 IU/L
AST (3 h): 74 IU/L
BUN (3 h): 14.2 mg/dL
CRE (3 h): 0.2 mg/dL
Ca (3 h): 11.2 mg/dL
Cl (3 h): 105 meq/L
DBIL (3 h): 0.002 mg/dL
GLC (3 h): 177 mg/dL
IP (3 h): 8 mg/dL
K (3 h): 4.3 meq/L
LDH (3 h): 163.4 IU/L
Na (3 h): 140.6 meq/L
PL (3 h): 149 mg/dL
RALB (3 h): 2.9 g/dL
TBIL (3 h): 0.014 mg/dL
TC (3 h): 76.2 mg/dL
TG (3 h): 127.8 mg/dL
TP (3 h): 5.3 g/dL
gamma-GTP (3 h): 1 IU/L
TERMINAL_BW (6 h): 216.4 g
APTT (6 h): 22.5 s
Bas (6 h): 0%
Eos (6 h): 0.6%
Fbg (6 h): 317.6 mg/dL
Hb (6 h): 13 g/dL
Ht (6 h): 39%
Lym (6 h): 57.2%
MCH (6 h): 21 pg
MCHC (6 h): 33.5%
MCV (6 h): 62.8 fL
Mono (6 h): 3.4%
Neu (6 h): 37.8%
PT (6 h): 15.6 s
Plat (6 h): 134.5 x10_4/uL
RBC (6 h): 620.8 x10_4/ul
Ret (6 h): 6.9%
WBC (6 h): 125.7 x10_2/uL
KIDNEY_L (6 h): 1 g
KIDNEY_R (6 h): 1 g
KIDNEY_TOTAL (6 h): 1.9 g
LIVER (6 h): 9.6 g
A/G (6 h): 1.3
ALP (6 h): 1345.2 IU/L
ALT (6 h): 38.2 IU/L
AST (6 h): 68.6 IU/L
BUN (6 h): 12.8 mg/dL
CRE (6 h): 0.1 mg/dL
Ca (6 h): 11.2 mg/dL
Cl (6 h): 104.2 meq/L
DBIL (6 h): 0 mg/dL
GLC (6 h): 175.2 mg/dL
IP (6 h): 9.6 mg/dL
K (6 h): 4.3 meq/L
LDH (6 h): 166.6 IU/L
Na (6 h): 139.2 meq/L
PL (6 h): 149.2 mg/dL
RALB (6 h): 3 g/dL
TBIL (6 h): 0.024 mg/dL
TC (6 h): 78.4 mg/dL
TG (6 h): 81.6 mg/dL
TP (6 h): 5.4 g/dL
gamma-GTP (6 h): 1.2 IU/L
TERMINAL_BW (9 h): 210.8 g
APTT (9 h): 21.5 s
Bas (9 h): 0%
Eos (9 h): 1%
Fbg (9 h): 315.4 mg/dL
Hb (9 h): 13 g/dL
Ht (9 h): 38.9%
Lym (9 h): 62%
MCH (9 h): 20.6 pg
MCHC (9 h): 33.4%
MCV (9 h): 61.7 fL
Mono (9 h): 2.2%
Neu (9 h): 34.6%
PT (9 h): 15.9 s
Plat (9 h): 132.8 x10_4/uL
RBC (9 h): 631.6 x10_4/ul
Ret (9 h): 7.2%
WBC (9 h): 96.5 x10_2/uL
KIDNEY_L (9 h): 0.9 g
KIDNEY_R (9 h): 0.9 g
KIDNEY_TOTAL (9 h): 1.9 g
LIVER (9 h): 8.7 g
A/G (9 h): 1.3
ALP (9 h): 1104.4 IU/L
ALT (9 h): 35.8 IU/L
AST (9 h): 67 IU/L
BUN (9 h): 12.6 mg/dL
CRE (9 h): 0.1 mg/dL
Ca (9 h): 11.1 mg/dL
Cl (9 h): 104.2 meq/L
DBIL (9 h): 0.002 mg/dL
GLC (9 h): 176.6 mg/dL
IP (9 h): 10.3 mg/dL
K (9 h): 4.6 meq/L
LDH (9 h): 146 IU/L
Na (9 h): 139.6 meq/L
PL (9 h): 145.4 mg/dL
RALB (9 h): 3.1 g/dL
TBIL (9 h): 0.024 mg/dL
TC (9 h): 76.4 mg/dL
TG (9 h): 103.8 mg/dL
TP (9 h): 5.5 g/dL
gamma-GTP (9 h): 1.6 IU/L
TERMINAL_BW (24 h): 217.2 g
APTT (24 h): 20.8 s
Bas (24 h): 0%
Eos (24 h): 0.8%
Fbg (24 h): 315.4 mg/dL
Hb (24 h): 13 g/dL
Ht (24 h): 37.9%
Lym (24 h): 85%
MCH (24 h): 21.3 pg
MCHC (24 h): 34.3%
MCV (24 h): 62 fL
Mono (24 h): 3%
Neu (24 h): 10.2%
PT (24 h): 15.9 s
Plat (24 h): 116 x10_4/uL
RBC (24 h): 613.4 x10_4/ul
Ret (24 h): 6%
WBC (24 h): 71.4 x10_2/uL
KIDNEY_L (24 h): 1 g
KIDNEY_R (24 h): 1 g
KIDNEY_TOTAL (24 h): 2 g
LIVER (24 h): 9.9 g
A/G (24 h): 1.3
ALP (24 h): 1315 IU/L
ALT (24 h): 46 IU/L
AST (24 h): 73 IU/L
BUN (24 h): 19.6 mg/dL
CRE (24 h): 0.2 mg/dL
Ca (24 h): 11.4 mg/dL
Cl (24 h): 103.2 meq/L
DBIL (24 h): 0.002 mg/dL
GLC (24 h): 179.2 mg/dL
IP (24 h): 10 mg/dL
K (24 h): 4.5 meq/L
LDH (24 h): 186.2 IU/L
Na (24 h): 140.6 meq/L
PL (24 h): 142 mg/dL
RALB (24 h): 3.1 g/dL
TBIL (24 h): 0.016 mg/dL
TC (24 h): 75 mg/dL
TG (24 h): 89.4 mg/dL
TP (24 h): 5.6 g/dL
gamma-GTP (24 h): 1.6 IU/L
